Assay results taken from US4300011A, “Selective production of aromatics” (Mobil Oil Corporation, priority 1980, dated 1981).

Assays:
[1] = Effective critical dimension from CPK space-filling atomic models; type: physicochemical
Excerpt: The concept of an "effective critical dimension" of a molecule is described by Breck on pages 633 to 641 in Zeolite Molecular Sieves, John Wiley & Sons, Inc. (1974), the entire contents of which are incorporated herein by reference. Generally, this dimension is the smallest dimension that will permit passage through the pores of the zeolite, i.e., the dimension that most nearly approaches the pore size of the zeolite. For example, the critical dimension of n-hexane is the thickness not the length, while the critical dimension for benzene is the cross-sectional diameter, rather than the thickness.
Effective critical dimensions for the purposes of this invention were determined by the use of CPK (Corey-Pauling-Koltun) space-filling atomic models, obtained from Ealing Corporation, Natick, Mass. The following Table illustrates critical dimensions measured from such models with corresponding pKa values for several heterocyclic compounds.

[2] = cited from earlier work; for pKa: from Katritzky, Physical Methods in Heterocyclic Chemistry

Compound | Effective Critical Dimension [1] | relative base strength ([2]; versus 1,10-phenanthroline) | pKa [2]
c1cnc2c(c1)ccc1cccnc12 [1,10-Phenanthroline] | 7.5 Angstroms | – | –
c1ccc(-c2ccnc3c2ccc2c(-c4ccccc4)ccnc23)cc1 [Bathophenanthroline, 4,7-diphenyl-1,10-phenanthroline] | 9.5 Angstroms | – | –
c1ccc2c(c1)ccc1ncccc12 [5,6-Benzoquinoline] | 7.5 Angstroms | slightly stronger base than 1,10-phenanthroline | –
Cc1cccc(C)n1 [2,6-Lutidine] | 6.6 Angstroms | – | 6.8
Cc1ccnc2c(C)cccc12 [4,8-Dimethylquinoline] | 7.4 Angstroms | – | –
Cc1cc(C)c2ccccc2n1 [2,4-Dimethylquinoline] | 7.5 Angstroms | – | 5.1
Cc1cc(C)c2cccc(C)c2n1 [2,4,8-Trimethylquinoline] | 7.9 Angstroms | – | 4.5
c1ccncc1 [Pyridine, reference compound] | 6.2 Angstroms | – | –
Cc1ccnc2ccccc12 [4-Methylquinoline] | 7.3 Angstroms | – | 5.2
Cc1ccncc1C [3,4-Lutidine, 3,4-dimethylpyridine] | 7.0 Angstroms | – | 6.5
c1ccc2c(c1)ccc1cccnc12 [7,8-Benzoquinoline] | 7.5 Angstroms | – | –
Cc1nc(C)c(C)c(C)c1C [Pentamethylpyridine] | 7.7 Angstroms | – | –
Cc1ccc2ccc3ccc(C)nc3c2n1 [Neocuproine, 2,9-dimethyl-1,10-phenanthroline] | 8.3 Angstroms | – | –
Cc1cc(C)nc(C)c1 [2,4,6-Collidine, 2,4,6-trimethylpyridine] | 7.5 Angstroms | – | –
